# Laboratory results as given in ChEMBL document CHEMBL2074399, “Effects of steroids and verapamil on P-glycoprotein ATPase activity: progesterone, desoxycorticosterone, corticosterone and verapamil are mutually non-exclusive modulators” (Biochem J, 1996).
# Biological target: ATP-dependent translocase ABCB1 (Homo sapiens, UniProt P08183)
# Assay: TP_TRANSPORTER: inhibition of Verapamil stimulated ATP hydrolysis (Verapamil: 2 uM, Corticosterone: 800 uM) in membrane vesicles from DC-3F/ADX cells
# Format: functional, cell membranes, Membrane vesicle
# Conditions: hamster
# ATP-dependent translocase ABCB1, sequence (P08183 whole entry): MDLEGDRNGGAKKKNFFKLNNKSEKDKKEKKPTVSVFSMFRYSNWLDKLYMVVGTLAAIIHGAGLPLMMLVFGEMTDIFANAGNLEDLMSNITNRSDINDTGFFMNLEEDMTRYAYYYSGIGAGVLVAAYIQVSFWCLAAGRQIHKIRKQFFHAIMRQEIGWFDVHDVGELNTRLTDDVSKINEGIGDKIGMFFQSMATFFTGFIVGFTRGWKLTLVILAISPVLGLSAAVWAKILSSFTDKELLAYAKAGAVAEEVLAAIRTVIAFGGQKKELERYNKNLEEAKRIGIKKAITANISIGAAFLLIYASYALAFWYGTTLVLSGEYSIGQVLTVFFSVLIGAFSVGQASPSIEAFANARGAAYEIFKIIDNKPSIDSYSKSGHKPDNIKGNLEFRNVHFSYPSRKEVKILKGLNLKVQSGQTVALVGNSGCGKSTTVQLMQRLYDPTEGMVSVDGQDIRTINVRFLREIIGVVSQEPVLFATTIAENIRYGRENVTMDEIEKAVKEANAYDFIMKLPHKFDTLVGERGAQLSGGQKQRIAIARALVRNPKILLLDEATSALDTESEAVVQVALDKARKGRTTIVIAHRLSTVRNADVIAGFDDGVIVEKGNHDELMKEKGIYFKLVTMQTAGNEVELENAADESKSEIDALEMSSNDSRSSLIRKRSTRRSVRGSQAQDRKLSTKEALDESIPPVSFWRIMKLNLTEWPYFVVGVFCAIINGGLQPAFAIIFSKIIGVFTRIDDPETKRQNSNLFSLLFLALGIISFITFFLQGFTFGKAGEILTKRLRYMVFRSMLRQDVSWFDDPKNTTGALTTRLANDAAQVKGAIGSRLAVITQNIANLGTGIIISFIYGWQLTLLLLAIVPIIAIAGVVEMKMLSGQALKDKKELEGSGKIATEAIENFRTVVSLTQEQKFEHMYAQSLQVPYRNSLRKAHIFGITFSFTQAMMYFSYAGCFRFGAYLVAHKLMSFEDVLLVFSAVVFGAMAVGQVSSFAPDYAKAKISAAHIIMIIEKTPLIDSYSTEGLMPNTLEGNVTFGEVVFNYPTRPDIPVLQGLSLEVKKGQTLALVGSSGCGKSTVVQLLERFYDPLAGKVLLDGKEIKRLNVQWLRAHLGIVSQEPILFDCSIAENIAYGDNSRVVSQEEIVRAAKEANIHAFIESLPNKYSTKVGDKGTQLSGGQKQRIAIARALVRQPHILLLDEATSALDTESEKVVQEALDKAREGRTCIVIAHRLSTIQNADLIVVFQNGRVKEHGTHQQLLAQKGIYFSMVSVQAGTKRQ
compound,measurement,value
C[C@]12C[C@H](O)[C@H]3[C@@H](CCC4=CC(=O)CC[C@@]43C)[C@@H]1CC[C@@H]2C(=O)CO [CORTICOSTERONE],Activity,inhibitor [+]
